Measurements taken from patent US20220160751A1, “METHODS OF TREATMENT OF DISEASES AND DISORDERS ASSOCIATED WITH INCREASED TET LEVEL, INCREASED H19 LEVEL, INCREASED LEVEL OF TGF SIGNALING, OR ANY COMBINATION THEREOF” (YALE UNIVERSITY, priority 2019, published 2022).
“Also recorded” adds a separate entry of the source.

Legend:
primary human HSCs = assay: qPCR of key pathway genes in primary human HSCs; format: cell-based; conditions: TGF-β1 2 ng/mL vs vehicle, 24 h
Procedure: (§1) Total RNA was extracted from cultured cells or liver tissue samples using PureLink RNA Mini Kit (Ambion, 12183018A). 0.8 μg of total RNA was reverse transcribed to cDNA in a reaction volume of 10 μl using PrimeScript RT Reagent Kit (TAKARA, RR037A). Quantitative real-time PCR reactions were carried out using iQSYBRGreen (Bio-Rad) in a Bio-Rad iCycler. Gene expression levels were normalized against housekeeping genes HPRT1 and RPLP0.

[1] = test system: LX-2 human hepatic stellate cells; assay: qPCR and immunoblotting of gene expression in LX-2 cells; format: cell-based; conditions: TGF-β1 5 ng/mL vs vehicle, 24 h
Procedure: LX-2 human hepatic stellate cells (Yale Liver Center) were maintained in DMEM (Gibco, 11965-092) supplemented with 10% heat-inactivated fetal bovine serum (Gibco, 26140-079) and 1% PS (penicillin and streptomycin) at 37° C. in 5% humidified CO2 tissue culture incubator. Generally, cells were plated and transfected in a 24-well plate scale. For transfection with siRNA, let-7, or iLet7, 10 pmol of siTET3 (or siCon), let-7 (or miCon), or iLet7 (iCon) were mixed with 25 μl of OPTI-MEM (Gibco, 31985-070) by gentle pipetting. In parallel, 1 μl of Lipofectamine 3000 (ThermoFisher Scientific, L3000015) was mixed with 25 μl of OPTI-MEM. Then, the contents from the two tubes were mixed by gentle pipetting. After incubation for 5 min at RT, the resulting 50 μl solution was used to resuspend cell pellet (5×10^4 cells). After incubation at RT for 10 min, 450 μl of growth medium was added and the cell suspension was transferred into one well of a 24-well plate. For transfection with TET3-expression plasmid pTET3 (pcDNA-Flag-Tet3, Addgene plasmid #60940, (30)) or control vector, 5×10^4 cells per well were seeded in a 24-well plate the night before transfection. The next day, 0.75 μg of pTET3 (or Vec) were mixed with 1 μl of P3000 in 25 μl of OPTI-MEM by gentle pipetting. In parallel, 0.5 μl of Lipofectamine 3000 were mixed with 25 μl of OPTI-MEM. The contents from the two tubes were combined by gentle pipetting and incubated for 5 min at RT. The resulting 50 μl of transfection solution was added to each well of cells seeded in a 24-well plate the night before and from which the growth medium had been removed. After 6 h of incubation in a tissue culture incubator, 500 μl of growth medium were added to each well of cells. For TGF-β1 (Sigma, USA) treatment experiments, transfected cells were incubated in 500 μl of serum-free DMEM containing 5 ng/mL TGF-β1 (diluted with HCl) or HCl (as control) for 24 h or 48 h as indicated.
as §1
For liver tissue samples, 5-10 mg of tissues were homogenized by sonication (Qsonica, Model Q125) in 150 μl of 2×SDS-sample buffer. Samples were immediately heated at 100° C. for 3 min with occasional vertexing. Then, 100 μl of 2×SDS-sample buffer was added to each sample and the 250 μl of tissue lysate were further homogenized by sonication and heated again at 100° C. for 3-5 min with vertexing once every 15 sec. Samples (further diluted at 1:1 with 2×SDS-sample buffer before loading) were loaded 5-10 μl per well onto a 4-15% gradient SDS gel, followed by Western blot analysis. Image J was used to quantify the protein bands.

TGF-β1: TGF-β1 (Sigma) used to stimulate LX-2 cells and primary human HSCs
expression of TET2 and TET1 (primary human HSCs): decreased expression of TET2 and TET1
expression of TET3, TGFB1, TSP1, TGFBR2, FN1, and COL1A1 (primary human HSCs): increased expression of TET3, TGFB1, TSP1, TGFBR2, FN1, and COL1A1
LIN28B expression [1]: stimulated expression of LIN28B
SMAD3 phosphorylation (with expression of α-SMA, COL1A1, FN1 and TIMP1) [1]: concomitant increase in SMAD3 phosphorylation; also recorded: increased Smad3 phosphorylation
TET3 expression (mRNA and protein) [1]: upregulated TET3; also recorded: increased expression of TET3
expression of TGF-β1, TSP1, and TGFBR2 [1]: also increased
let-7a and let-7b expression [1]: decreased expression of let-7a and let-7b
